From US7473688B2, “Indolobenzazepine HCV NS5B inhibitors” (Bristol-Myers Squibb Company, priority 2005, dated 2009)

The compounds below were run against T1, HCV NS5B (Hepatitis C virus genotype 1b, UniProt Q9WMX2) (assay: HCV NS5B RdRp enzyme assay (preincubation protocol)). Settings: Table 1, read-out: IC50*.
T1 construct: The protein was expressed with an 18 amino acid C-terminal truncation to enhance the solubility; made in house; host or cells: E. coli BL21 (DE3), pET21a
Assay type: biochemical
Method: HCV NS5B RdRp cloning, expression, and purification. The cDNA encoding the NS5B protein of HCV, genotype 1b, was cloned into the pET21a expression vector. The protein was expressed with an 18 amino acid C-terminal truncation to enhance the solubility. The E. coli competent cell line BL21 (DE3) was used for expression of the protein. Cultures were grown at 37° C. for ˜4 hours until the cultures reached an optical density of 2.0 at 600 nm. The cultures were cooled to 20° C. and induced with 1 mM IPTG. Fresh ampicillin was added to a final concentration of 50 μg/ml and the cells were grown overnight at 20° C.
Cell pellets (3L) were lysed for purification to yield 15-24 mgs of purified NS5B. The lysis buffer consisted of 20 mM Tris-HCl, pH 7.4, 500 mM NaCl, 0.5% triton X-100, 1 mM DTT, 1 mM EDTA, 20% glycerol, 0.5 mg/ml lysozyme, 10 mM MgCl2, 15 ug/ml deoxyribonuclease I, and Complete TM protease inhibitor tablets (Roche). After addition of the lysis buffer, frozen cell pellets were resuspended using a tissue homogenizer. To reduce the viscosity of the sample, aliquots of the lysate were sonicated on ice using a microtip attached to a Branson sonicator. The sonicated lysate was centrifuged at 100,000×g for 1 hr at 4° C. and filtered through a 0.2 μm filter unit (Corning).
The protein was purified using three sequential chromatography steps: Heparin sepharose CL-6B, polyU sepharose 4B, and Hitrap SP sepharose (Pharmacia). The chromatography buffers were identical to the lysis buffer but contained no lysozyme, deoxyribonuclease I, MgCl2 or protease inhibitor and the NaCl concentration of the buffer was adjusted according to the requirements for charging the protein onto the column. Each column was eluted with a NaCl gradient which varied in length from 5-50 column volumes depending on the column type. After the final chromatography step, the resulting purity of the enzyme is >90% based on SDS-PAGE analysis. The enzyme was aliquoted and stored at −80° C.
Standard HCV NS5B RdRp enzyme assay. HCV RdRp genotype 1b assays were run in a final volume of 60 μl in 96 well plates (Costar 3912). The assay buffer is composed of 20 mM Hepes, pH 7.5, 2.5 mM KCl, 2.5 mM MgCl2, 1 mM DTT, 1.6 U RNAse inhibitor (Promega N2515), 0.1 mg/ml BSA (Promega R3961), and 2% glycerol. All compounds were serially diluted (3-fold) in DMSO and diluted further in water such that the final concentration of DMSO in the assay was 2%. HCV RdRp genotype 1b enzyme was used at a final concentration of 28 nM. A polyA template was used at 6 nM, and a biotinylated oligo-dT12 primer was used at 180 nM final concentration. Template was obtained commercially (Amersham 27-4110). Biotinylated primer was prepared by Sigma Genosys. 3H-UTP was used at 0.6 μCi (0.29 μM total UTP). Reactions were initiated by the addition of enzyme, incubated at 30° C. for 60 min, and stopped by adding […] of 50 mM EDTA containing SPA beads (4 μg/μl, Amersham RPNQ 0007). Plates were read on a Packard Top Count NXT after >1 hr incubation at room temperature.
Modified HCV NS5B RdRp enzyme assay. A modified enzyme assay was performed essentially as described for the standard enzyme assay except for the following: The biotinylated oligo dT12 primer was precaptured on streptavidin-coated SPA beads by mixing primer and beads in assay buffer and incubating at room temperature for one hour. Unbound primer was removed after centrifugation. The primer-bound beads were resuspended in 20 mM Hepes buffer, pH 7.5 and used in the assay at final concentrations of […] primer and 0.67 μg/μl beads. Order of addition in the assay: Enzyme (14 nM) was added to diluted compound followed by the addition of a mixture of template (0.2 nM), 3H-UTP (0.6 μCi, 0.29 μM), and primer-bound beads, to initiate the reaction; concentrations given are final. Reactions were allowed to proceed for 4 hours at 30° C.
IC50 values for compounds were determined using seven different [I]. […]

T1 sequence (Q9WMX2 2420-2992): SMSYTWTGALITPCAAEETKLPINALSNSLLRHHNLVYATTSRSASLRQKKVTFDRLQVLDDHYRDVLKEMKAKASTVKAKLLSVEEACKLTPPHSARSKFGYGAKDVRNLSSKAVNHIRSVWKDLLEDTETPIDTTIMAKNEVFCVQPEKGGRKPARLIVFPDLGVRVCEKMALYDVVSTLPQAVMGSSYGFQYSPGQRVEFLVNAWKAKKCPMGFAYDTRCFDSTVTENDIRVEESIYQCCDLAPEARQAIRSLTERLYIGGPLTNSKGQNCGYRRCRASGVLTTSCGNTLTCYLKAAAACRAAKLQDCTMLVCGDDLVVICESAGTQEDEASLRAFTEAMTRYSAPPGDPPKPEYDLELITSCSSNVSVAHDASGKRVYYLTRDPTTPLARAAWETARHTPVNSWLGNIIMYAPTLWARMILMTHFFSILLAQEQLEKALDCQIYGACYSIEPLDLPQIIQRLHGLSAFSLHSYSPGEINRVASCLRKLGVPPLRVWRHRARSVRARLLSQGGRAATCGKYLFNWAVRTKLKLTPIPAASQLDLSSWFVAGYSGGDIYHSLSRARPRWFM

Row | SMILES | IC50 [nM]
1 | COC(=O)c1ccc2c(C3CCCCC3)c3n(c2c1)CC(C(=O)N1CCC(N2CC[C@H](F)C2)CC1)=Cc1ccccc1-3 | > 1000

Same assay, conditions: Table 1a, read-out: IC50*

Row | SMILES | IC50 [nM]
2 | COC(=O)c1ccc2c(C3CCCCC3)c3n(c2c1)CC(NC(=O)OC(C)(C)C)Cc1ccccc1-3 (centres unmarked) | 10 to 1000
3 | C=CCNC(=O)N1CCN(C(=O)C2=Cc3ccccc3-c3c(C4CCCCC4)c4ccc(C(=O)NS(=O)(=O)N(C)C)cc4n3C2)CC1 | 10 to 1000
4 | CNC(=O)N1CCN(C(=O)C2=Cc3ccccc3-c3c(C4CCCCC4)c4ccc(C(=O)NS(=O)(=O)N(C)C)cc4n3C2)CC1 | 10 to 1000
5 | COC(=O)c1ccc2c(C3CCCCC3)c3n(c2c1)CC(NC(=O)C1CCOCC1)Cc1ccccc1-3 (centres unmarked) | > 1000
6 | O=C(NC[C@@H]1CCCO1)c1ccc2c(C3CCCCC3)c3n(c2c1)CC(C(=O)N1CCC(N2CCOCC2)CC1)=Cc1ccccc1-3 | 10 to 1000
7 | COc1ccc2c(c1)CC(C(=O)N(C)CC(=O)N(C)C)Cn1c-2c(C2CCCCC2)c2ccc(C(=O)NS(=O)(=O)N(C)C)cc21 (centres unmarked) | 10 to 1000
8 | CNC(=O)CNC(=O)C1=Cc2cc(OC)ccc2-c2c(C3CCCCC3)c3ccc(C(=O)O)cc3n2C1 | 10 to 1000
9 | CN(C)C(=O)CNC(=O)c1ccc2c(C3CCCCC3)c3n(c2c1)CC(C(=O)N1CCC(N2CCOCC2)CC1)=Cc1ccccc1-3 | 10 to 1000
10 | CNC(=O)CNC(=O)C1=Cc2cc(OC)ccc2-c2c(C3CCCCC3)c3ccc(C(=O)NS(=O)(=O)N(C)C)cc3n2C1 | 10 to 1000
11 | O=C(NCCc1nc2ccccc2[nH]1)c1ccc2c(C3CCCCC3)c3n(c2c1)CC(C(=O)N1CCC(N2CCOCC2)CC1)=Cc1ccccc1-3 | 10 to 1000
12 | COC(=O)c1ccc2c(C3CCCCC3)c3n(c2c1)CC(NC(=O)NC1CCN(C(=O)C(F)(F)F)CC1)Cc1ccccc1-3 (centres unmarked) | > 1000
13 | CN1CCN(C(=O)C2=Cc3ccccc3-c3c(C4CCCCC4)c4ccc(C(=O)NS(=O)(=O)N(C)C)cc4n3C2)CC1=O | 10 to 1000
14 | CN(C)C(=O)CN(C)C(=O)C1=Cc2ccccc2-c2c(C3CCCCC3)c3ccc(C(=O)O)cc3n2C1 | 10 to 1000
15 | COc1ccc2c(c1)C=C(C(=O)N(C)CC(=O)O)Cn1c-2c(C2CCCCC2)c2ccc(C(=O)O)cc21 | 10 to 1000
16 | COc1ccc2c(c1)C=C(C(=O)N(C)CC(=O)N1CCOCC1)Cn1c-2c(C2CCCCC2)c2ccc(C(=O)O)cc21 | 10 to 1000
17 | CN(C)C(=O)CN(C)C(=O)C1=Cc2ccccc2-c2c(C3CCCCC3)c3ccc(C(=O)NS(=O)(=O)N(C)C)cc3n2C1 | 10 to 1000
18 | COc1ccc2c(c1)C=C(C(=O)N1CCC[C@@H](OC(C)=O)C1)Cn1c-2c(C2CCCCC2)c2ccc(C(=O)NS(=O)(=O)N(C)C)cc21 | 10 to 1000
19 | CN(C)C(=O)C1CCN(C(=O)C2=Cc3ccccc3-c3c(C4CCCCC4)c4ccc(C(=O)NS(=O)(=O)N(C)C)cc4n3C2)CC1 | 10 to 1000
20 | COc1ccc2c(c1)C=C(C(=O)N(C)CC(=O)N1CCOCC1)Cn1c-2c(C2CCCCC2)c2ccc(C(=O)NS(=O)(=O)N(C)C)cc21 | 10 to 1000
21 | COc1ccc2c(c1)C=C(C(=O)N1C[C@@H](C)O[C@@H](C)C1)Cn1c-2c(C2CCCCC2)c2ccc(C(=O)NS(=O)(=O)N3CCN(C)CC3)cc21 | 10 to 1000
22 | COc1ccc2c(c1)C=C(C(=O)N1CCN(C)C(=O)C1)Cn1c-2c(C2CCCCC2)c2ccc(C(=O)NS(=O)(=O)N(C)C)cc21 | 10 to 1000
23 | CCN(CC)C(=O)CN(C)C(=O)C1=Cc2cc(OC)ccc2-c2c(C3CCCCC3)c3ccc(C(=O)NS(=O)(=O)N(C)C)cc3n2C1 | 10 to 1000
24 | COCCNC(=O)CN(C)C(=O)C1=Cc2cc(OC)ccc2-c2c(C3CCCCC3)c3ccc(C(=O)NS(=O)(=O)N(C)C)cc3n2C1 | 10 to 1000
25 | COC(=O)c1ccc2c(C3CCCCC3)c3n(c2c1)CC(NC(=O)C1CCCC(OC)C1)Cc1ccccc1-3 (centres unmarked) | > 1000
26 | COc1ccc2c(c1)CC(C(=O)N(C)CC1CCCO1)Cn1c-2c(C2CCCCC2)c2ccc(C(=O)NS(=O)(=O)N(C)C)cc21 (centres unmarked) | 10 to 1000

Row | SMILES | IC50 [nM]
27 | COc1ccc2c(c1)CC(C(=O)N(C)CC1CCCO1)Cn1c-2c(C2CCCCC2)c2ccc(C(=O)O)cc21 (centres unmarked) | 10 to 1000
28 | COC(=O)c1ccc2c(C3CCCCC3)c3n(c2c1)CC(C(=O)NCC1CCCO1)Cc1cc(OC)ccc1-3 (centres unmarked) | > 1000
29 | COc1ccc2c(c1)C=C(C(=O)N1CCC[C@H](OC(C)=O)C1)Cn1c-2c(C2CCCCC2)c2ccc(C(=O)NS(=O)(=O)N(C)C)cc21 | 10 to 1000
30 | COc1ccc2c(c1)C=C(C(=O)N1CCC(C(=O)N(C)C)CC1)Cn1c-2c(C2CCCCC2)c2ccc(C(=O)NS(=O)(=O)N(C)C)cc21 | 10 to 1000
31 | COc1ccc2c(c1)CC(N(C)C(=O)N1C[C@@H](C)O[C@@H](C)C1)Cn1c-2c(C2CCCCC2)c2ccc(C(=O)O)cc21 (some centres unmarked) | 10 to 1000
32 | COCCNC(=O)CN(C)C(=O)C1Cc2cc(OC)ccc2-c2c(C3CCCCC3)c3ccc(C(=O)NS(=O)(=O)N(C)C)cc3n2C1 (centres unmarked) | 10 to 1000
33 | CCN(CC)C(=O)CN(C)C(=O)C1Cc2cc(OC)ccc2-c2c(C3CCCCC3)c3ccc(C(=O)NS(=O)(=O)N(C)C)cc3n2C1 (centres unmarked) | 10 to 1000
34 | COc1ccc2c(c1)CC(N(C)C(=O)N1C[C@@H](C)O[C@@H](C)C1)Cn1c-2c(C2CCCCC2)c2ccc(C(=O)NS(=O)(=O)N(C)C)cc21 (some centres unmarked) | 10 to 1000
35 | COC1CCCC(C(=O)N(C)C2Cc3ccccc3-c3c(C4CCCCC4)c4ccc(C(=O)NS(=O)(=O)N(C)C)cc4n3C2)C1 (centres unmarked) | 10 to 1000
36 | COC1CCCC(C(=O)N(C)C2Cc3ccccc3-c3c(C4CCCCC4)c4ccc(C(=O)O)cc4n3C2)C1 (centres unmarked) | 10 to 1000
37 | COC(=O)c1ccc2c(C3CCCCC3)c3n(c2c1)CC(NC(=O)C1CCOCC1)Cc1cc(OC)ccc1-3 (centres unmarked) | 10 to 1000
38 | COc1ccc2c(c1)C=C(C(=O)N1CCN(C(=O)CN)CC1)Cn1c-2c(C2CCCCC2)c2ccc(C(=O)NS(=O)(=O)N(C)C)cc21 | < 20
39 | COc1ccc2c(c1)CC(C(=O)N1CCN(C(=O)N(C)C)CC1)Cn1c-2c(C2CCCCC2)c2ccc(C(=O)NS(=O)(=O)N(C)C)cc21 (centres unmarked) | 10 to 1000
40 | COC(=O)c1ccc2c(C3CCCCC3)c3n(c2c1)CC(C(=O)N1C[C@@H](C)N(C)[C@@H](C)C1)=Cc1cc(F)ccc1-3 | 10 to 1000
41 | COc1ccc2c(c1)CC(N(C)C(=O)C1CCOCC1)Cn1c-2c(C2CCCCC2)c2ccc(C(=O)NS(=O)(=O)N(C)C)cc21 (centres unmarked) | 10 to 1000
42 | COc1ccc2c(c1)CC(N(C)C(=O)C1CCOCC1)Cn1c-2c(C2CCCCC2)c2ccc(C(=O)O)cc21 (centres unmarked) | < 20
43 | CC(=O)NC1Cc2ccccc2-c2c(C3CCCCC3)c3ccc(C(=O)NS(=O)(=O)N(C)C)cc3n2C1 (centres unmarked) | 10 to 1000
44 | COc1ccc2c(c1)C=C(C(=O)N1CCC(C(=O)N(C)C)CC1)Cn1c-2c(C2CCCCC2)c2ccc(C(=O)NS(=O)(=O)N3CCN(C)CC3)cc21 | 10 to 1000
45 | C[C@@H]1CN(C(=O)C2=Cc3ccccc3-c3c(C4CCCCC4)c4ccc(C(=O)NS(=O)(=O)OCC(C)(C)C)cc4n3C2)C[C@H](C)O1 | 10 to 1000
46 | C[C@@H]1CN(C(=O)C2=Cc3cc(F)ccc3-c3c(C4CCCCC4)c4ccc(C(=O)O)cc4n3C2)C[C@H](C)N1C | 10 to 1000
47 | COc1ccc2c(c1)C=C(C(=O)N1C[C@@H](C)N(C)[C@@H](C)C1)Cn1c-2c(C2CCCCC2)c2ccc(C(=O)NS(=O)(=O)N(C)C)cc21 | 10 to 1000
48 | COc1ccc2c(c1)C=C(C(=O)N1CCN(CC(F)(F)F)CC1)Cn1c-2c(C2CCCCC2)c2ccc(C(=O)NS(=O)(=O)N3CCOCC3)cc21 | 10 to 1000
49 | COC(=O)c1ccc2c(C3CCCCC3)c3n(c2c1)CC(C(=O)NCc1ncco1)Cc1cc(OC)ccc1-3 (centres unmarked) | 10 to 1000
50 | O=C(NS(=O)(=O)N1CCOCC1)c1ccc2c(C3CCCCC3)c3n(c2c1)CC(C(=O)N1CCN(CC(F)(F)F)CC1)=Cc1ccccc1-3 | 10 to 1000
